Measured values: patent US10913738B2 (BRISTOL-MYERS SQUIBB COMPANY, priority 2017, dated 2021)
Like-named read-outs stand apart in the source and are kept apart here.

Experiments:
[1] = system: MLKL phosphorylation in HT29-L23 human colorectal adenocarcinoma cells; assay: MLKL Phosphorylation High-Content Assay; type: cell-based; details: Homo sapiens
Outline: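 IC50 and Ymax obtained by 4-parameter logistic fitting of MLKL phosphorylation, measured as mean circ-ring average intensity ratio from high-content images. Staining used an anti-phospho-S358 MLKL antibody overnight at 4° C., following six-hour cell incubation at 37° C.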

[2] = target: T1, His-GST-TVMV-hRIPK1(1-324) (Homo sapiens, UniProt Q13546); assay: RIPK1 HTRF Binding Assay
T1 construct: The coding region of human RIPK1(1-324) flanked by NdeI site at 5′ end; made in house; host or cells: Spodoptera frugiperda (Sf9) insect cells, baculovirus
T1 sequence (Q13546 1-324): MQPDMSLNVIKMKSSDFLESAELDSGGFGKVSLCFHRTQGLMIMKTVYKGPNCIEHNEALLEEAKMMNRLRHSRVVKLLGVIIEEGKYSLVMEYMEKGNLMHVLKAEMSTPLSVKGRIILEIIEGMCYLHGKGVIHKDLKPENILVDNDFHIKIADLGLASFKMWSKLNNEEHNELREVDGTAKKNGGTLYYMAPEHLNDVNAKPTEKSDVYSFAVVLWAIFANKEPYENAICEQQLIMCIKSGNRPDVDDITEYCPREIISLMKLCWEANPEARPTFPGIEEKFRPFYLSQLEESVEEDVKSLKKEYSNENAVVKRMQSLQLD

[3] = x marks IC50 class <20 nM, read-out: pMLKL cell activity <20 nM
[4] = x marks IC50 class <20 nM, read-out: RIPK1 HTRF binding <20 nM
[5] = x marks IC50 class 20-200 nM, read-out: pMLKL cell activity 20-200 nM
[6] = x marks IC50 class >200 nM, read-out: pMLKL cell activity >200 nM
[7] = x marks IC50 class 20-200 nM, read-out: RIPK1 HTRF binding 20-200 nM
[8] = x marks IC50 class >200 nM, read-out: RIPK1 HTRF binding >200 nM

## COc1ncc(-c2ccn3nc(N)nc3c2)cc1C(=O)NCc1c(OCC2CC2)ccc(F)c1F [Example 338, 5-(2-amino-[1,2,4]triazolo[1,5-a]pyridin-7-yl)-N-(6-(cyclopropylmethoxy)-2,3-difluorobenzyl)-2-methoxynicotinamide]
[1]; [3]
  IC50: < 20 nM
[2]; [4]
  IC50: < 20 nM

## COc1nc(C)c(-c2ccn3nc(N)nc3c2)cc1C(=O)NCc1cc(OC(F)(F)F)ccc1F [Example 201, 5-{2-amino-[1,2,4]triazolo[1,5-a]pyridin-7-yl}-N-{[2-fluoro-5-(trifluoromethoxy)phenyl]methyl}-2-methoxy-6-methylpyridine-3-carboxamide]
[1]; [5]
  IC50: 20 to 200 nM
[2]; [4]
  IC50: < 20 nM

## [2H]C([2H])(NC(=O)c1cc(-c2ccn3nc(N)nc3c2)cnc1C)c1cc(C(F)(F)F)ccc1F [Example 307, 5-(2-amino-[1,2,4]triazolo[1,5-a]pyridin-7-yl)-N-((2-fluoro-5-(trifluoromethyl)phenyl)methyl-H2)-2-methylnicotinamide]
[1]; [5]
  IC50: 20 to 200 nM
[2]; [4]
  IC50: < 20 nM

## COc1nc(C)c(-c2ccn3nc(N)nc3c2)cc1C(=O)NCc1ccccc1CN1CCCCC1 [Example 358, 5-(2-amino-[1,2,4]triazolo[1,5-a]pyridin-7-yl)-2-methoxy-6-methyl-N-(2-(piperidin-1-ylmethyl)benzyl)nicotinamide]
[1]; [6]
  IC50: > 200 nM
[2]; [7]
  IC50: 20 to 200 nM

## CCOc1ncc(-c2ccn3nc(N)nc3c2)cc1C(=O)Nc1cnn(Cc2ccccc2)c1 [Example 279, 5-{2-amino-[1,2,4]triazolo[1,5-a]pyridin-7-yl}-N-(1-benzyl-1H-pyrazol-4-yl)-2-ethoxypyridine-3-carboxamide]
[1]; [5]
  IC50: 20 to 200 nM
[2]; [7]
  IC50: 20 to 200 nM

## [2H]C([2H])([2H])N(Cc1cc(OC(F)(F)F)ccc1F)C(=O)c1cc(-c2ccn3nc(N)nc3c2)cnc1OC [Example 367, 5-(2-amino-[1,2,4]triazolo[1,5-a]pyridin-7-yl)-N-(2-fluoro-5-(trifluoromethoxy)benzyl)-2-methoxy-N-(methyl-d3)nicotinamide]
[1]; [3]
  IC50: < 20 nM
[2]; [4]
  IC50: < 20 nM

## CCOc1ncc(-c2ccn3nc(N)nc3c2)cc1C(=O)NCC1(c2ccccc2F)CC1 [Example 274, 5-{2-amino-[1,2,4]triazolo[1,5-a]pyridin-7-yl}-2-ethoxy-N-{[1-(2-fluorophenyl)cyclopropyl]methyl}pyridine-3-carboxamide]
[1]; [5]
  IC50: 20 to 200 nM
[2]; [8]
  IC50: > 200 nM

## C[C@H](NC(=O)c1cnc(Cl)c(-c2ccn3nc(N)nc3c2)c1)c1cc(OC(F)(F)F)ccc1F [Example 371, (S)-5-(2-amino-[1,2,4]triazolo[1,5-a]pyridin-7-yl)-6-chloro-N-(1-(2-fluoro-5-(trifluoromethoxy)phenyl)ethyl)nicotinamide]
[1]; [5]
  IC50: 20 to 200 nM
[2]; [4]
  IC50: < 20 nM

## COc1nc(C)c(-c2ccn3nc(N)nc3c2)cc1C(=O)NCc1cccnc1OCC1CCCC1 [Example 8, 5-{2-Amino-[1,2,4]triazolo[1,5-a]pyridin-7-yl}-N-{[2-(cyclopentylmethoxy)pyridin-3-yl]methyl}-2-methoxy-6-methylpyridine-3-carboxamide]
[1]; [5]
  IC50: 20 to 200 nM
[2]; [4]
  IC50: < 20 nM

## Cc1ncc(-c2ccn3nc(N)nc3c2)cc1C(=O)NCc1ncccc1OCC1CCCC1 [Example 12, 5-{2-amino-[1,2,4]triazolo[1,5-a]pyridin-7-yl}-N-{[3-(cyclopentylmethoxy)pyridin-2-yl]methyl}-2-methylpyridine-3-carboxamide]
[1]; [5]
  IC50: 20 to 200 nM
[2]; [4]
  IC50: < 20 nM

## Cc1ncc(-c2ccn3nc(N)nc3c2)cc1C(=O)NCc1c(F)cccc1OC1CCCC1 [Example 247, 5-{2-amino-[1,2,4]triazolo[1,5-a]pyridin-7-yl}-N-{[2-(cyclopentyloxy)-6-fluorophenyl]methyl}-2-methylpyridine-3-carboxamide]
[1]; [3]
  IC50: < 20 nM
[2]; [4]
  IC50: < 20 nM

## CCOc1ncc(-c2ccn3nc(N)nc3c2)cc1C(=O)NCC[C@@H](O)c1ccc(Cl)cc1 [Example 276, 5-{2-amino-[1,2,4]triazolo[1,5-a]pyridin-7-yl}-N-[(3R)-3-(4-chlorophenyl)-3-hydroxypropyl]-2-ethoxypyridine-3-carboxamide]
[1]; [6]
  IC50: > 200 nM
[2]; [8]
  IC50: > 200 nM

## COc1ncc(-c2ccn3nc(N)nc3c2)cc1C(=O)NCc1ncccc1OCC1CCCC1 [Example 124, 5-{2-amino-[1,2,4]triazolo[1,5-a]pyridin-7-yl}-N-{[3-(cyclopentylmethoxy)pyridin-2-yl]methyl}-2-methoxypyridine-3-carboxamide]
[1]; [5]
  IC50: 20 to 200 nM
[2]; [4]
  IC50: < 20 nM

## CNc1ncc(-c2ccn3nc(N)nc3c2)cc1C(=O)NCc1ccccc1Sc1ccccc1CO [Example 57]
[1]; [5]
  IC50: 20 to 200 nM
[2]; [4]
  IC50: < 20 nM

## CCc1ncc(-c2ccn3nc(N)nc3c2)cc1C(=O)N[C@@H](C)c1cc(OC(F)(F)F)ccc1F [Example 321, (S)-5-(2-amino-[1,2,4]triazolo[1,5-a]pyridin-7-yl)-2-ethyl-N-(1-(2-fluoro-5-(trifluoromethoxy)phenyl)ethyl)nicotinamide]
[1]; [5]
  IC50: 20 to 200 nM
[2]; [7]
  IC50: 20 to 200 nM

## CCOc1ncc(-c2ccn3nc(N)nc3c2)cc1C(=O)NCc1ccccc1OCC1CC1 [Example 272, 5-{2-amino-[1,2,4]triazolo[1,5-a]pyridin-7-yl}-N-{[2-(cyclopropylmethoxy)phenyl]methyl}-2-ethoxypyridine-3-carboxamide]
[1]; [5]
  IC50: 20 to 200 nM
[2]; [4]
  IC50: < 20 nM

## COc1ncc(-c2ccn3nc(N)nc3c2)cc1C(=O)NCc1ccccc1OCC1CCC(C)CC1 (stereo not shown) [Example 10, 5-{2-Amino-[1,2,4]triazolo[1,5-a]pyridin-7-yl}-2-methoxy-N-({2-[(4-methylcyclohexyl)methoxy]phenyl}methyl)pyridine-3-carboxamide]
[1]; [6]
  IC50: > 200 nM
[2]; [7]
  IC50: 20 to 200 nM

## Cc1ncc(-c2ccn3nc(N)nc3c2)cc1C(=O)NCc1cc(F)cc(F)c1OC1CCCOC1 (stereo not shown) [Example 314, 5-(2-amino-[1,2,4]triazolo[1,5-a]pyridin-7-yl)-N-(3,5-difluoro-2-((tetrahydro-2H-pyran-3-yl)oxy)benzyl)-2-methylnicotinamide]
[1]; [5]
  IC50: 20 to 200 nM
[2]; [7]
  IC50: 20 to 200 nM

## Cc1ncc(-c2ccn3nc(N)nc3c2)cc1C(=O)NCc1cc(F)cc(F)c1OCC(C)C [Example 301, 5-(2-amino-[1,2,4]triazolo[1,5-a]pyridin-7-yl)-N-(3,5-difluoro-2-isobutoxybenzyl)-2-methylnicotinamide]
[1]; [5]
  IC50: 20 to 200 nM
[2]; [4]
  IC50: < 20 nM

## CC(CCNC(=O)c1cc(-c2ccn3nc(N)nc3c2)nc2ccc(F)cc12)c1ccccc1 (stereo not shown) [Example 67, 2-{2-Amino-[1,2,4]triazolo[1,5-a]pyridin-7-yl}-6-fluoro-N-(3-phenylbutyl)quinoline-4-carboxamide]
[1]; [5]
  IC50: 20 to 200 nM
[2]; [7]
  IC50: 20 to 200 nM

## COc1nc(C)c(-c2ccn3nc(N)nc3c2)cc1C(=O)NCc1ccccc1OCC1CC(=O)C1 [Example 3, 5-{2-Amino-[1,2,4]triazolo[1,5-a]pyridin-7-yl}-2-methoxy-6-methyl-N-({2-[(3-oxocyclobutyl)methoxy]phenyl}methyl)pyridine-3-carboxamide]
[1]; [5]
  IC50: 20 to 200 nM
[2]; [7]
  IC50: 20 to 200 nM

## Cc1nc(C)c(-c2ccn3nc(N)nc3c2)cc1C(=O)NCc1cc(F)cc(F)c1OC1CCOC(C)C1 (stereo not shown) [Example 296, 5-(2-amino-[1,2,4]triazolo[1,5-a]pyridin-7-yl)-N-(3,5-difluoro-2-((2-methyltetrahydro-2H-pyran-4-yl)oxy)benzyl)-2,6-dimethylnicotinamide]
[1]; [5]
  IC50: 20 to 200 nM
[2]; [7]
  IC50: 20 to 200 nM

## COc1ncc(-c2ccn3nc(N)nc3c2)cc1C(=O)NCc1ccccc1S(=O)(=O)N1CCCCCC1 [Example 111, 5-{2-amino-[1,2,4]triazolo[1,5-a]pyridin-7-yl}-N-{[2-(azepane-1-sulfonyl)phenyl]methyl}-2-methoxypyridine-3-carboxamide]
[1]; [6]
  IC50: > 200 nM
[2]; [4]
  IC50: < 20 nM

## Cc1nc(C)c(-c2ccn3nc(N)nc3c2)cc1C(=O)NCc1cc(F)ccc1OCC(F)(F)F [Example 292, 5-(2-amino-[1,2,4]triazolo[1,5-a]pyridin-7-yl)-N-(5-fluoro-2-(2,2,2-trifluoroethoxy)benzyl)-2,6-dimethylnicotinamide]
[1]; [5]
  IC50: 20 to 200 nM
[2]; [7]
  IC50: 20 to 200 nM

## COc1nc(C)c(-c2ccn3nc(N)nc3c2)cc1C(=O)NCc1cc(F)cc(F)c1OC1CC(C)OC(C)C1 (stereo not shown) [Example 353, 5-(2-amino-[1,2,4]triazolo[1,5-a]pyridin-7-yl)-N-(2-((2,6-dimethyltetrahydro-2H-pyran-4-yl)oxy)-3,5-difluorobenzyl)-2-methoxy-6-methylnicotinamide]
[1]; [5]
  IC50: 20 to 200 nM
[2]; [4]
  IC50: < 20 nM

## COc1ncc(-c2ccn3nc(N)nc3c2)cc1C(=O)NCc1cc(F)ccc1OCC1CCCC1 [Example 129, 5-{2-amino-[1,2,4]triazolo[1,5-a]pyridin-7-yl}-N-{[2-(cyclopentylmethoxy)-5-fluorophenyl]methyl}-2-methoxypyridine-3-carboxamide]
[1]; [5]
  IC50: 20 to 200 nM
[2]; [4]
  IC50: < 20 nM
